Assay results from PubChem BioAssay (NCI).
Where “and” joins values, the source holds several entries; their conditions need not be identical. Identical values can stand only once.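 Tested at 5 concentrations; 48 h exposure; 96-well plates; endpoints linearly interpolated, else capped at highest concentration. GI50 marks 50% less growth. At the TGI there is no net growth.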

system: SF-539 CNS; assay: inhibition of tumour cell growth, NCI panel, 48 h

SMILES	GI50 [µM]	TGI [µM]
S=c1[nH]c(=S)c2cc3ccccc3nc2[nH]1	> 100	> 100

system: SN12C renal; assay: inhibition of tumour cell growth, NCI panel, 48 h

SMILES	GI50 [µM]	TGI
CC1(C)OC2C(CO[Si](C)(C)C(C)(C)C)OC(n3c(I)c(C#C[Si](C)(C)C)c(=O)[nH]c3=O)C2O1 (centres undefined)	15.1	37.5 µM
CN(C)CC[C@H](CSc1ccccc1)Nc1ccc(S(=O)(=O)NC(=O)c2ccc(N3CCN(Cc4ccccc4-c4ccc(Cl)cc4)CC3)cc2)cc1[N+](=O)[O-]	3.56	> 56.7 µM
COc1ccc(-c2ccc(=O)oc2C#Cc2cc(OC)c(OC)c(OC)c2)cc1O	0.665	> 100 µM
O=C(/C=C/c1ccc[nH]1)c1ccc(-n2ccc(C(F)(F)F)n2)cc1	10.1	> 100 µM
O=C(c1ccco1)c1c(C(F)(F)F)nc2ccc(Cl)cc2[n+]1[O-]	> 100	> 100 µM
COc1ccc(-c2nnc3n(C)c(=O)c4ccccc4n23)cc1N	6.83	> 100 µM
Clc1cc2c(c(CSc3nc4ccccc4n4cccc34)c1)OCOC2	> 100	> 100 µM
CN1CCN(c2ccc(Nc3cc(-c4cccc(-n5ccc6cc(C7CC7)cc(F)c6c5=O)c4CO)cn(C)c3=O)nc2)CC1	3.35	13.9 µM
COc1ccc2nc3ccccc3c(NCc3ccc(F)cc3)c2c1	1.83	7.32 µM
CN(C)C1CCN(C(=O)c2ccc(NC(=O)Nc3ccc(-c4nc(N5CCOCC5)c5cccn5n4)cc3)cc2)CC1	0.0365	14.7 µM
COc1cc(N=Nc2ccc(O)c3ncccc23)c2ncccc2c1	4.45	> 100 µM
CCn1c(O)c(/C=N/NC(=O)C(C)c2ccc(CC(C)C)cc2)sc1=S (centres undefined)	0.619	> 40.3 µM
C[C@@H]1C[C@@H]([C@@H](CC2CC(=O)NC(=O)C2)OC(=O)CC(=O)c2ccccc2)C(=O)[C@@H](C)C1	0.15	> 39.3 µM
Cc1nc(Nc2cccnc2)sc1C(=O)/C=C/c1ccc(F)cc1	3.17	> 100 µM
N=c1c2c(-c3ccccc3)c(-c3ccccc3)n(Cc3ccccc3)c2ncn1C1CCC(O)CC1 (centres undefined)	0.389	16.4 µM
O=c1c(F)cn(Cc2ccc(C34CC5CC(CC(C5)C3)C4)c(O)c2)c(=O)n1Cc1ccc(C23CC4CC(CC(C4)C2)C3)c(O)c1	10.5	22.3 µM
CCOC(=O)Nc1cc2c(c(N)n1)N=C(c1ccccc1)CO2	0.84	31.1 µM
CC1CC2CCCC(O)=C2C(=O)O1 (centres undefined)		> 100 µM
CC(C)(/C=C(\C#N)C(=O)N1CCC[C@@H](n2nc(-c3ccc(Oc4ccccc4)cc3F)c3c(N)ncnc32)C1)N1CCN(C2COC2)CC1	4.3	16.2 µM

SMILES	GI50 [µM]	TGI
O=c1oc2ccc(-c3ccc(F)cc3F)cc2c(=O)n1-c1cccc(C(F)(F)F)c1	1	10.4 µM
COC(=O)c1ccc2c(c1)C(=O)c1c-2n(CCCN=[N+]=[N-])c(=O)c2cc(OC)c(OC)cc12	> 100	> 100 µM
O=C(Cc1ccc(F)c(Cl)c1)Nc1cc(C2(C(F)(F)F)CC2)nn1CC1CCCCC1	4.46	> 15 µM
NC1CCN(Cc2ccccc2)CC1	> 100	> 100 µM
N#Cc1nn(-c2cc(=O)[nH]c3ccc(Cl)cc23)c(N)c1C#N	> 100	> 100 µM
NNC(=O)CNc1cccc(Br)c1		> 100 µM
NC(N)=NCCCC(=O)O		> 100 µM
CCN1CCN(c2cc(C)c3cc(NC(=O)c4ccc(OC)c(OC)c4)ccc3n2)CC1	> 100	> 100 µM
COC(=O)c1c2c(c(C)[n+]([O-])c1C)C(=O)C=C(NCc1ccc(F)cc1)C2=O	0.345	1.41 µM
Nc1ncn([C@@H]2O[C@H](CO)[C@@H](O)[C@H]2O)c(=O)n1	0.594	> 100 µM
CCCC(=O)Nc1cn(COC)c(C(=O)N2C[C@@H]3C[C@]34C2=CC(=O)c2[nH]cc(C)c24)n1		30.9 µM and 22.9 µM
CC(=O)Nc1ccc(-c2csc(Nc3cccc(-c4csc(C)n4)c3)n2)cc1	1.36	6.78 µM
CNCCOC(=O)/C=C1\CC[C@H]2[C@@H]([C@@H](O)C(=O)[C@@H]3[C@]2(C)CC[C@H](O)[C@]3(C)C(=O)OC)[C@H]1C	0.327	1.64 µM
Cc1nnc(Nc2ccc(NC(=O)Nc3ccc(Cl)cc3)cc2)c2ccccc12	2.86	9.41 µM
CC(=O)ON1CCCC(P(=O)(OCCSC(=O)C(C)(C)C)OCCSC(=O)C(C)(C)C)C1=O (centres undefined)	0.36	15 µM
C=CCC1(c2ccc(OC)cc2)C=CC(=O)CC1 (centres undefined)		> 100 µM
COc1ccc(C(=O)Nc2ccc(O)c(=O)cc2)cc1		> 100 µM
Cc1nc(N)sc1N=Nc1ccccc1Br		57.5 µM
S=c1[nH]c(=S)c2cc3ccccc3nc2[nH]1	> 100	> 100 µM

system: CAKI-1 renal; assay: inhibition of tumour cell growth, NCI panel, 48 h

SMILES	GI50 [µM]	TGI [µM]
CN(C)CC[C@H](CSc1ccccc1)Nc1ccc(S(=O)(=O)NC(=O)c2ccc(N3CCN(Cc4ccccc4-c4ccc(Cl)cc4)CC3)cc2)cc1[N+](=O)[O-]	6.71	> 100
COc1ccc(-c2ccc(=O)oc2C#Cc2cc(OC)c(OC)c(OC)c2)cc1O	0.621	> 100
O=C(/C=C/c1ccc[nH]1)c1ccc(-n2ccc(C(F)(F)F)n2)cc1	> 31.6	> 100
O=C(c1ccco1)c1c(C(F)(F)F)nc2ccc(Cl)cc2[n+]1[O-]	26.6	85.8
COc1ccc(-c2nnc3n(C)c(=O)c4ccccc4n23)cc1N	1.95	> 100
Clc1cc2c(c(CSc3nc4ccccc4n4cccc34)c1)OCOC2	> 100	> 100
CN1CCN(c2ccc(Nc3cc(-c4cccc(-n5ccc6cc(C7CC7)cc(F)c6c5=O)c4CO)cn(C)c3=O)nc2)CC1	2.66	10.8
COc1ccc2nc3ccccc3c(NCc3ccc(F)cc3)c2c1	1.73	7.05
CN(C)C1CCN(C(=O)c2ccc(NC(=O)Nc3ccc(-c4nc(N5CCOCC5)c5cccn5n4)cc3)cc2)CC1	3.39	20.8
COc1cnc2c(c1)C(=O)c1c-2n(CCCNC2=NCCS2)c(=O)c2cc([N+](=O)[O-])ccc12	< 0.01	1.47
COc1cc(N=Nc2ccc(O)c3ncccc23)c2ncccc2c1	1.83	> 100
CCn1c(O)c(/C=N/NC(=O)C(C)c2ccc(CC(C)C)cc2)sc1=S (centres undefined)	0.331	> 33.7
C[C@@H]1C[C@@H]([C@@H](CC2CC(=O)NC(=O)C2)OC(=O)CC(=O)c2ccccc2)C(=O)[C@@H](C)C1	0.252	
Cc1nc(Nc2cccnc2)sc1C(=O)/C=C/c1ccc(F)cc1	3.39	13.6
N=c1c2c(-c3ccccc3)c(-c3ccccc3)n(Cc3ccccc3)c2ncn1C1CCC(O)CC1 (centres undefined)	0.147	1.89
O=c1c(F)cn(Cc2ccc(C34CC5CC(CC(C5)C3)C4)c(O)c2)c(=O)n1Cc1ccc(C23CC4CC(CC(C4)C2)C3)c(O)c1	17.5	31.6
CCOC(=O)Nc1cc2c(c(N)n1)N=C(c1ccccc1)CO2	0.102	7.62
